Calls of active or inactive are those of the source. The rule behind the calls is not given here.
Experiments:
[1] = test system: HCT-116; experiment: Inhibition of DNA repairing pathway in human HCT-116 cells assessed as downregulation of MRE11 protein expression at 0.25 to 2 uM incubated for 24 hrs by immunoblotting analysis; assay type: functional, cell-based; conditions: dose 0.25-2 µM
[2] = test system: 4T1; experiment: Antitumor activity against mouse 4T1 cells implanted in BALB/c mouse assessed as reduction in tumor weight at 20 mg/kg, ip administered every alternate day for 2 weeks relative to control; assay type: functional; parameters: scale not given: the % may be the effect or the level left
[3] = test system: HCT-116; experiment: Induction of DNA damage in human HCT-116 cell assessed as comet tail formation at 4 uM incubated for 24 hrs by EtBr-based alkaline Comet assay (Rvb= 2.99 %); assay type: functional
[4] = test system: PC-3; experiment: Antiproliferative activity against human PC-3 cells assessed as cell growth inhibition incubated for 44 hrs by MTT assay; assay type: functional, cell-based; conditions: PC-3, 44 h
[5] = test system: HCT-116; experiment: Induction of cell cycle arrest in human HCT-116 cells assessed as accumulation of cells at G2 phase at 2 uM incubated for 24 hrs by RNase/PI staining-based FACS flow cytometry analysis (reference value: 33 %); assay type: functional
[6] = test system: 4T1; experiment: Antitumor activity against mouse 4T1 cells implanted in BALB/c mouse assessed as reduction in tumor volume at 20 mg/kg, ip administered every alternate day for 2 weeks relative to control; assay type: functional; parameters: scale not given: the % may be the effect or the level left
[7] = test system: HCT-116; experiment: Induction of cell cycle arrest in human HCT-116 cells assessed as accumulation of cells at G1 phase at 2 uM incubated for 24 hrs by RNase/PI staining-based FACS flow cytometry analysis (reference value: 51 %); assay type: functional
[8] = Elimination half life in BALB/c mouse at 20 mg/kg, ip measured upto 24 hrs by LC-MS/MS analysis; assay type: ADME, organism-based; conditions: in vivo, read-out: beta t1/2 (converted)
[9] = test system: HCT-116; experiment: Induction of DNA double-strand breaks in human HCT-116 cells assessed as increase in gammaH2AX accumulation at 0.25 to 2 uM incubated for 24 hrs by immunoblotting analysis; assay type: functional, cell-based; conditions: dose 0.25-2 µM
[10] = Volume of distribution in BALB/c mouse at 20 mg/kg, ip measured upto 24 hrs by LC-MS/MS analysis; assay type: ADME, organism-based; conditions: in vivo
[11] = test system: HCT-116; experiment: Antiproliferative activity against human HCT-116 cells assessed as cell growth inhibition incubated for 44 hrs by MTT assay; assay type: functional, cell-based; conditions: HCT-116, 44 h
[12] = test system: HCT-116; experiment: Induction of cell cycle arrest in human HCT-116 cells assessed as accumulation of cells at G1 phase at 0.5 uM incubated for 24 hrs by RNase/PI staining-based FACS flow cytometry analysis (reference value: 51 %); assay type: functional
[13] = test system: HCT-116; experiment: Induction of DNA damage in human HCT-116 cell assessed as increase in olive tail moment at 4 uM incubated for 24 hrs by EtBr-based alkaline Comet assay (Rvb= 0.26%); assay type: functional
[14] = test system: HCT-116; experiment: Inhibition of epithelial-to-mesenchymal transition in human HCT-116 cells assessed as downregulation of Snail-1 protein expression by immunoblot analysis; assay type: functional, cell-based
[15] = test system: HCT-116; experiment: Induction of cell cycle arrest in human HCT-116 cells assessed as accumulation of cells at S phase at 2 uM incubated for 24 hrs by RNase/PI staining-based FACS flow cytometry analysis (reference value: 11 %); assay type: functional
[16] = test system: HCT-116; experiment: Induction of cell cycle arrest in human HCT-116 cells assessed as accumulation of cells at G2 phase at 0.5 uM incubated for 24 hrs by RNase/PI staining-based FACS flow cytometry analysis (reference value: 33 %); assay type: functional
[17] = test system: A549; experiment: Antiproliferative activity against human A549 cells assessed as cell growth inhibition incubated for 44 hrs by MTT assay; assay type: functional, cell-based; conditions: A549, 44 h
[18] = test system: MCF7; experiment: Antiproliferative activity against human MCF7 cells assessed as cell growth inhibition incubated for 44 hrs by MTT assay; assay type: functional, cell-based; conditions: MCF7, 44 h
[19] = test system: HCT-116; experiment: Inhibition of DNA repairing pathway in human HCT-116 cells assessed as downregulation of Rad51 protein expression at 0.25 to 2 uM incubated for 24 hrs by immunoblotting analysis; assay type: functional, cell-based; conditions: dose 0.25-2 µM
[20] = AUC (0 to infinity) in BALB/c mouse at 20 mg/kg, ip measured upto 24 hrs by LC-MS/MS analysis; assay type: ADME, organism-based; parameters: dose 20 mg/kg, time < 24 hrs, route ip; conditions: in vivo
[21] = test system: HCT-116; experiment: Induction of DNA damage in human HCT-116 cell assessed as comet tail formation at 2 uM incubated for 24 hrs by EtBr-based alkaline Comet assay (Rvb= 2.99 %); assay type: functional
[22] = test system: HCT-116; experiment: Induction of cell cycle arrest in human HCT-116 cells assessed as accumulation of cells at G1 phase at 1 uM incubated for 24 hrs by RNase/PI staining-based FACS flow cytometry analysis (reference value: 51 %); assay type: functional
[23] = test system: HCT-116; experiment: Inhibition of DNA repairing pathway in human HCT-116 cells assessed as increase in cleaved PARP level at 0.25 to 2 uM incubated for 24 hrs by immunoblotting analysis; assay type: functional, cell-based; conditions: dose 0.25-2 µM
[24] = test system: HCT-116; experiment: Inhibition of DNA repairing pathway in human HCT-116 cells assessed as increase in p-Chk2 level at 0.25 to 2 uM incubated for 24 hrs by immunoblotting analysis; assay type: functional, cell-based; conditions: dose 0.25-2 µM
[25] = Drug exposure in BALB/c mouse plasma at 20 mg/kg, ip measured upto 24 hrs by LC-MS/MS analysis; assay type: ADME, organism-based; parameters: dose 20 mg/kg, time < 24 hrs, route ip
[26] = test system: HCT-116; experiment: Induction of DNA damage in human HCT-116 cell assessed as increase in olive tail moment at 0.5 uM incubated for 24 hrs by EtBr-based alkaline Comet assay (Rvb= 0.26%); assay type: functional
[27] = test system: HCT-116; experiment: Induction of DNA damage in human HCT-116 cell assessed as comet tail formation at 1 uM incubated for 24 hrs by EtBr-based alkaline Comet assay (Rvb= 2.99 %); assay type: functional
[28] = Clearance in BALB/c mouse at 20 mg/kg, ip measured upto 24 hrs by LC-MS/MS analysis; assay type: ADME, organism-based; conditions: in vivo
[29] = test system: HCT-116; experiment: Inhibition of DNA repairing pathway in human HCT-116 cells assessed as downregulation of H2AX protein expression at 0.25 to 2 uM incubated for 24 hrs by immunoblotting analysis; assay type: functional, cell-based; conditions: dose 0.25-2 µM
[30] = test system: HCT-116; experiment: Inhibition of epithelial-to-mesenchymal transition in human HCT-116 cells assessed as reduction in VEGF-induced cell scattering incubated for 48 hrs by inverted microscopic analysis; assay type: functional, cell-based
[31] = test system: HCT-116; experiment: Induction of DNA damage in human HCT-116 cells assessed as micronuclei formation at 0.5 to 2 uM incubated for 24 hrs by DAPI staining based immunofluorescence analysis; assay type: functional, cell-based; conditions: dose 0.5-2 µM
[32] = test system: HCT-116; experiment: Induction of cell cycle arrest in human HCT-116 cells assessed as accumulation of cells at S phase at 1 uM incubated for 24 hrs by RNase/PI staining-based FACS flow cytometry analysis (reference value: 11 %); assay type: functional
[33] = test system: HCT-116; experiment: Inhibition of epithelial-to-mesenchymal transition in human HCT-116 cells assessed as downregulation of Twist-1 protein expression by immunoblot analysis; assay type: functional, cell-based
[34] = Cytotoxicity against human fR2 cells assessed as cell growth inhibition incubated for 44 hrs by MTT assay; assay type: toxicity, cell-based
[35] = test system: HCT-116; experiment: Induction of cell cycle arrest in human HCT-116 cells assessed as accumulation of cells at S phase at 0.5 uM incubated for 24 hrs by RNase/PI staining-based FACS flow cytometry analysis (reference value: 11 %); assay type: functional
[36] = Toxicity in BALB/c mouse implanted with mouse 4T1 cells at 20 mg/kg, ip administered every alternate day for 2 weeks; assay type: organism-based; conditions: in vivo, 336 h

- IC50 [4]: 6.05 µM
- half-life [8]: 1.6 h
- Vd [10]: 4.4 L/kg
- IC50 [11]: 1.02 µM
- IC50 [17]: 1.68 µM
- IC50 [18]: 1.41 µM
- AUC(0-inf) [20]: 11200 ng·h/mL
- AUC at 24 h [25]: > 25 µM·h
- CL/F [28]: 30 mL/min/kg
Structure (SMILES): COC(=O)[C@]1([C@H]2CCn3c2nc2ccccc2c3=O)NCCc2c1[nH]c1ccccc21 (racemic)
- inhibition [1]: Active
- Activity [2]: 63%
- Activity [3]: 61.4%
- Activity [5]: 21%
- Activity [6]: 89.3%
- Activity [7]: 74%
- Activity [9]: Active
- Activity [12]: 66%
- Activity [13]: 24.72%
- inhibition [14]: Active
- Activity [15]: 4%
- Activity [16]: 24%
- inhibition [19]: Active
- Activity [21]: 51.03%
- Activity [22]: 71%
- inhibition [23]: Active
- inhibition [24]: Active
- Activity [26]: 5.21%
- Activity [27]: 48%
- inhibition [29]: Active
- inhibition [30]: Active
- Activity [31]: Active
- Activity [32]: 7%
- inhibition [33]: Active
- IC50 at 44 h [34]: 19.7 µM
- Activity [35]: 7%
- Activity [36]: Non-Toxic
